PubChem BioAssay AID179 (DTP/NCI, 2004)
Values joined by “and” are separate entries in the source; they are usually repeats but may differ in a detail not shown here. Equal entries are not always repeated. Active and inactive are the calls of the source.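 Rule for the calls: active = compounds giving half or more protection of infected cells from virus-caused growth loss, again on retest; inactive = the rest.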

System: CEM cells HIV-1 protection, formazan growth assay
Assay: NCI AIDS Antiviral Assay
Conditions: for IC50: measured here: growth of uninfected CEM cells
Summary of the method: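 Screen of anti-HIV-1 activity in human CEM cells using a formazan-based growth measurement at five drug concentrations. Hits with 50% or greater protection were repeated, and confirmation required reproducible complete protection.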

Row | SMILES | EC50 [µM] | IC50 | outcome
1 | CC(C)(C)/[N+]([O-])=[N+](\[O-])C(C)(C)C | > 200 | 33.9 µM | –
2 | Cc1cc(NCCCCCCNc2cc(C)nc3ccc(N)cc23)c2cc(N)ccc2n1 | – | 10.7 µM and 72.4 µM | –
3 | CN(C(=O)c1ccc(Cl)cc1)C(=S)N1CCN(c2ccccn2)CC1 | > 69.2 | 61.7 µM | –
4 | CCOC(=O)c1sc(SC)nc1NC(=O)c1ccc(OC)cc1 | > 200 | > 200 µM | –
5 | CN(C)CCNCCCNc1c2ccccc2nc2cccc([N+](=O)[O-])c12 | > 2 | 0.0129 µM | –
6 | C=C1CC23CC4C5C6(C)CC(O)CC57C(C2C(O)C1C(O)C37)N4C6 (configuration not stated) | – | – | inactive
7 | O=C(CC(=O)N1N=C(N(c2ccccc2)c2ccccc2)CC1c1ccccc1)Nc1cccc(Cl)c1 (configuration not stated) | 25.1 | > 200 µM | –
8 | OC(O)(C(F)(F)F)C(F)(F)F | > 200 | > 200 µM | –
9 | CCCCN(CC)CC(C(C)=O)c1c(O)c2ccccc2oc1=O (configuration not stated) | > 70.8 | > 70.8 µM | –
10 | CN1C/C(=C\c2ccco2)c2nc(N)nc(-c3ccco3)c2C1 | – | – | inactive
11 | Cn1c2c(c3cc(Cl)cc(Cl)c31)-c1ncncc1CC2 | > 61.7 | > 61.7 µM | –
12 | CCOc1ccccc1N=NC1C(=O)N(C(=O)CC(=O)Nc2ccccc2Cl)N=C1C (configuration not stated) | > 200 | > 200 µM | –
13 | COc1ccc2cc1Oc1ccc(cc1)C[C@H]1c3cc(c(OC)cc3CCN1C)Oc1c(OC)c(OC)cc3c1[C@H](C2)N(C)CC3 | > 21.9 | 12.3 µM | inactive
14 | COc1ccc(C=C2C(=O)OC(C)(C)OC2=O)cc1 | > 501 | 151 µM | –
15 | NC(CSS(=O)(=O)O)=NCC12CC3CC(CC(C3)C1)C2 | > 200 | 32.4 µM | –
16 | CC(C)c1c(O[Si](C(C)C)(C(C)C)C(C)C)cc2c(c1O)CC[C@H]1C(C)(C)CCC[C@]21C | > 200 | 26.9 µM | –
17 | Cc1cc(=O)[nH]c(-n2[nH]c3c(c2=O)CCCC3)n1 | > 200 | 24.5 µM | –
18 | COc1cc(-c2oc3c(OC)c(OC)cc(O)c3c(=O)c2OC)ccc1O | > 100 | 12.6 µM and 3.55 µM | –

Row | SMILES | EC50 [µM] | IC50 | outcome
19 | COC(=O)c1ccccc1NC(=NC1CCCCCC1)NS(=O)(=O)c1ccc(C)cc1 | > 200 | > 200 µM | –
20 | CC(=O)N1[C@H](C(=O)O)CS[C@H]1c1ccncc1 | – | – | inactive
21 | O=C(Nc1nc2ccccc2n1Cc1ccc(Cl)cc1)C(=O)NC12CC3CC(CC(C3)C1)C2 | > 21.4 | > 21.4 µM | –
22 | CCOC(=O)c1cc(-c2ccccc2)c(=O)c(OC)nc1-c1ccccc1 | > 200 | 74.1 µM | –
23 | NC1CC(=O)c2csc(Br)c21 (configuration not stated) | > 57.5 | 11 µM | –
24 | CCCCOCn1c(=O)[nH]c(=O)c2cc(Br)ccc21 | > 200 | 93.3 µM | –
25 | CCCCNS(=O)(=O)c1ccc(-c2ccc3c(c2)-c2ccc(S(=O)(=O)NCCCC)cc2S3(=O)=O)cc1 | > 12.9 | > 12.9 µM | –
26 | O=C(O)CCCc1cc2c(s1)-c1cccc3cccc-2c13 | > 33.9 | > 33.9 µM | –
27 | Cn1cnc2[nH]c(=O)n(O)c(=O)c21 | > 200 | 35.5 µM | –
28 | Cc1ccc(NC(=O)c2cc3c(cc2Cl)Sc2nccn2S3(=O)=O)cc1 | > 200 | 61.7 µM | –
29 | COc1cc([N+](=O)[O-])c(S(=O)(=O)O)cc1-[n+]1nc(C(=O)Nc2ccccc2)nn1-c1ccc([N+](=O)[O-])c(S(=O)(=O)[O-])c1 | > 200 | > 200 µM | –
30 | c1ccc(C2C3=C(Nc4ncnn42)c2ccccc2C3)cc1 (configuration not stated) | > 12.6 | 7.24 µM | –
31 | O=C1/C(=C/c2ccc(Cl)c(Cl)c2)CNC/C1=C\c1ccc(Cl)c(Cl)c1 | > 16.2 | 8.71 µM | –
32 | COc1cc2c(cc1OC)[C@H]1C(COC(=O)c3ccccc3)CSC(=Nc3ccccc3)N1CC2 (some centres not stated) | > 10.2 | > 10.2 µM | –
33 | CCOC(=O)NC(C)(C)CN(CCO)C(=O)OCC | > 200 | > 200 µM | –
34 | CN(C)c1ccc(C(c2cc3c(cc2O)OCO3)N2CCOCC2)cc1 (configuration not stated) | > 72.4 | 12.9 µM | –
35 | CN1CCCC2[C@@H]3CCC4=C(O)C(=O)CC[C@]4(C)C3CC[C@@]21C (some centres not stated) | > 74.1 | > 74.1 µM | –
